The source of these data is US20240382482A1, “PLASMA KALLIKREIN INHIBITORS” (TAKEDA PHARMACEUTICAL COMPANY LIMITED, priority 2021, published 2024).

human activated kallikrein enzyme, sequence (P03952 391-638 limits assumed): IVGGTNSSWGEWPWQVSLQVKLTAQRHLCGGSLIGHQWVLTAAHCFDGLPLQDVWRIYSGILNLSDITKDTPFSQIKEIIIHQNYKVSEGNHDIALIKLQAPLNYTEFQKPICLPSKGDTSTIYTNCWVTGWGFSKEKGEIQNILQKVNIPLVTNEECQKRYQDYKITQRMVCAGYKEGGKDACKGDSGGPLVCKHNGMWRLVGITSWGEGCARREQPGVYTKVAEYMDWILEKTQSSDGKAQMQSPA
human activated kallikrein enzyme, sequence (P03952 20-390 partner limits assumed): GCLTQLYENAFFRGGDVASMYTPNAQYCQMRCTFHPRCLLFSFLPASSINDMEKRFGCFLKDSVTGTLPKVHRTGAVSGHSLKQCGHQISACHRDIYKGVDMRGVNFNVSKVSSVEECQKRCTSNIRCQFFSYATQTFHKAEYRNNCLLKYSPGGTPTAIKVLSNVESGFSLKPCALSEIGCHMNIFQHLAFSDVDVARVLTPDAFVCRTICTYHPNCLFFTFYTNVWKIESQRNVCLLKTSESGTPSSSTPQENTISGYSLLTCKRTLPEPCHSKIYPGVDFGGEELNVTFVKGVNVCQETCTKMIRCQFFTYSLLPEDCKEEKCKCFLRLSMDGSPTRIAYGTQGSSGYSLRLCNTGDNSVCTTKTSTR

The assay concerns the target human activated kallikrein enzyme (Homo sapiens, UniProt P03952). Kind of assay: Inhibition of human activated kallikrein enzyme, fluorogenic peptide substrate assay (500 pM enzyme format). The assay is classed as biochemical. Particulars: 500 pM activated kallikrein, 300 μM PFR-AMC substrate, 30 min preincubation, 10 min reaction, room temperature; read-out: Primary Dose Response Assay: Average EC50. Put shortly: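 500 pM enzyme preincubated 30 min at room temperature with inhibitor in 20 mM Tris pH 7.5, 150 mM NaCl, 1 mM EDTA, 0.1% PEG-400, 0.1% Triton X-100. Reaction started with 300 μM PFR-AMC and run 10 min at room temperature. AMC fluorescence read at ex 380/em 460 nm, and EC50 values reported as ranges.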
By EC50 is commonly meant the midpoint of the concentration-response curve. `COc1ccc(-n2cnnn2)c(CC(=O)Nc2cc(NCc3cn4cc(C5CC5)ccc4n3)ncn2)c1F` [Example 37]: the concentration for a half-maximal effect (EC50) is at most 0.005 µM.

In the case of `Cc1cc(C(=N)N)cc(C)c1CNc1cc(NCc2cn3cc(C4CC4)ccc3n2)cnn1` [Example 98, 4-(((5-(((6-cyclopropylimidazo[1,2-a]pyridin-2-yl)methyl)amino)pyridazin-3-yl)amino)methyl)-3,5-dimethylbenzimidamide], the EC50 was at most 0.005 µM.

As to `CCOC(=O)NC(=N)c1cc(C)c(CNc2cc(OCc3cn4cc(C5CC5)ccc4n3)ncn2)c(C)c1` [Example 83, ethyl ((4-(((6-((6-cyclopropylimidazo[1,2-a]pyridin-2-yl)methoxy)pyrimidin-4-yl)amino)methyl)-3,5-dimethylphenyl)(imino)methyl)carbamate], the EC50 fell in the range of 0.05 to 0.5 µM.

As for `O=C(Cc1ncnc2ccc(Cl)cc12)Nc1cc(NCc2cn3cc(C4CC4)ccc3n2)ncn1` [Example 104, 2-(6-chloroquinazolin-4-yl)-N-(6-(((6-cyclopropylimidazo[1,2-a]pyridin-2-yl)methyl)amino)pyrimidin-4-yl)acetamide], the EC50 was above 9 µM.

As to `CC(C(=O)Nc1cc(NCc2cn3cc(C4CC4)ccc3n2)ncn1)N(C)c1cccc(Cl)c1` (stereo not shown) [Example 9, 2-((3-chlorophenyl)(methyl)amino)-N-(6-(((6-cyclopropylimidazo[1,2-a]pyridin-2-yl)methyl)amino)pyrimidin-4-yl)propanamide], the EC50 was 0.5 to 9 µM.

As for `O=C(Cc1ncn2ccc(Cl)cc12)Nc1cc(C(=O)c2cn3cc(C4CC4)ccc3n2)ncn1` [Example 58, 2-(7-chloroimidazo[1,5-a]pyridin-1-yl)-N-(6-(6-cyclopropylimidazo[1,2-a]pyridine-2-carbonyl)pyrimidin-4-yl)acetamide], the half-maximal effective concentration (EC50) was 0.5 to 9 µM.

Consider `CC(C)(C(=O)Nc1cc(NCc2cn3cc(C4CC4)ccc3n2)ncn1)c1ncn2ccc(Cl)cc12` [Example 5, 2-(7-chloroimidazo[1,5-a]pyridin-1-yl)-N-(6-(((6-cyclopropylimidazo[1,2-a]pyridin-2-yl)methyl)amino)pyrimidin-4-yl)-2-methylpropanamide], for which the EC50 is 0.5 to 9 µM.

`N#Cc1cc(C2CC2)cn2cc(CNc3cc(NC(=O)Cc4cc(Cl)ccc4-n4cnnn4)ncn3)nc12` [Example 15, 2-(5-chloro-2-(1H-tetrazol-1-yl)phenyl)-N-(6-(((8-cyano-6-cyclopropylimidazo[1,2-a]pyridin-2-yl)methyl)amino)pyrimidin-4-yl)acetamide]: the 50% effective concentration (EC50) was at most 0.005 µM.

For the compound `CC(Cc1cccc(Cl)c1)C(=O)Nc1cc(NCc2cn3cc(C4CC4)ccc3n2)ncn1` (stereo not shown) [Example 7, 3-(3-chlorophenyl)-N-(6-(((6-cyclopropylimidazo[1,2-a]pyridin-2-yl)methyl)amino)pyrimidin-4-yl)-2-methylpropanamide], the EC50 lay within 0.5 to 9 µM.

For the compound `O=C(Cn1nnc2ccc(Cl)cc21)Nc1cc(NCc2cn3cc(C4CC4)ccc3n2)ccn1` [Example 27, 2-(6-chloro-1H-benzo[d][1,2,3]triazol-1-yl)-N-(4-(((6-cyclopropylimidazo[1,2-a]pyridin-2-yl)methyl)amino)pyridin-2-yl)acetamide], the EC50 is 0.5 to 9 µM.
